Activity calls are given as the source filed them.
Experiments:
Format in all cases: functional, organism-based
Escherichia coli = experiment: Antibacterial activity against Escherichia coli HB101 after 4 days by serial dilution test
Staphylococcus aureus = experiment: Antibacterial activity against Staphylococcus aureus ATCC 25923 after 4 days by serial dilution test
Bacillus subtilis = experiment: Antibacterial activity against Bacillus subtilis 168 after 4 days by serial dilution test; conditions: subsp. subtilis str. 168
Candida albicans = experiment: Antifungal activity against Candida albicans after 4 days by serial dilution test
Spodoptera littoralis = experiment: Insecticidal activity against Spodoptera littoralis larvae administered through artificial diet by chronic feeding assay

Measured: Activity

O=C1CCC(=O)c2c1c(O)c(O)c1c2-c2ccc(O)c3c(O)ccc-1c23
inactive: all assays above

— ChEMBL document CHEMBL1150843, “Hortein, a new natural product from the fungus Hortaea werneckii associated with the sponge Aplysina aerophoba” (J Nat Prod, 2001)
